Reference: patent publication US20260091147A1, “METHOD FOR DETECTING INNATE IMMUNE ACTION IN VIVO USING GPR84-PET” (The Board of Trustees of the Leland Standford Junior …, priority 2023, published 2026)

Assays:
[1] = healthy rhesus macaque, n=1
Description: The animal was anesthetized in the home cage with Telazol and transported to the PET facility, where the subject was intubated for mechanical ventilation; anesthesia was continued with isoflurane and maintained throughout the duration of the PET scan. A venous catheter was inserted into one hind limb and the monkey was placed on the PET gantry with its head secured to prevent motion artifacts. […] Emission data were collected beginning with the injection and continued for 60 minutes. Vitals (HR, SPO2, EtCO2 and respiratory rate) were collected for the entire duration of the scan. Data were corrected for attenuation and scatter and reconstructed using the three-dimensional-maximum a priori method (3D MAP algorithm). A ROI was defined for the whole brain on multiple planes by using a summed image. The volumetric ROI was then applied to a full dynamic data set to generate a TAC.

GPR84 [2] = biological target: T1, GPR84 (Mus musculus, UniProt Q8CIM5); assay: Dynamic PET/CT of brain in LPS-induced systemic inflammation vs saline, with or without GLPG1205 block; assay type: in vivo; details: LPS 10 mg/kg, 24 h
T1 construct: tissue Jackson Laboratories; host or cells: female C57BL/6J mice (LPS, saline, EAE or naive): brain, spinal cord and peripheral organs
T1 sequence (Q8CIM5 whole entry): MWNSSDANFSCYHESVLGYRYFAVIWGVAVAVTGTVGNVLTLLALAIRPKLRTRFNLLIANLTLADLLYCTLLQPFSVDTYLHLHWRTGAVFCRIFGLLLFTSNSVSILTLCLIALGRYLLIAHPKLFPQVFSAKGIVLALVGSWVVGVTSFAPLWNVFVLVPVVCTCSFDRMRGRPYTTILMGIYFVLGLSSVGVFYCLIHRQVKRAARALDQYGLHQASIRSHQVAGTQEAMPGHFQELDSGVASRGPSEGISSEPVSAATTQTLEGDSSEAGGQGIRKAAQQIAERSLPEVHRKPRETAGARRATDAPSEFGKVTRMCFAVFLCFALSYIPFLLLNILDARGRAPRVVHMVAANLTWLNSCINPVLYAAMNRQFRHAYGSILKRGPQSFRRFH
Description: To determine KD of GLPG38, a competitive binding assay was performed using a membrane preparation from cells expressing GPR84-Gi in addition to [^3H]G9543, a known GPR84 antagonist. [^11C]GLPG38 was then radiosynthesized via [^11C]methylation of desmethyl precursor using [^11C]methyl iodide. […] Dynamic 60 min PET/CT imaging was performed 24 hr following LPS-administration using [^11C]GLPG38. Subsequently, mice were perfused with PBS to remove blood, and radioactive signal was assessed in CNS and peripheral tissues via gamma counting. Ex vivo autoradiography of sagittal mouse brain sections was conducted to obtain high resolution images of [^11C]GLPG38 binding. To investigate alterations in GPR84 mRNA expression, quantitative polymerase-chain reaction was performed using mouse brain tissue and human monocyte-derived macrophage cells stimulated with LPS 24 hr prior to RNA extraction.
The count densities were averaged for all volumes of interest at each time point to obtain a time-activity curve (TAC). The TACs were normalized to injected dose, as measured by a CRC-15 PET dose calibrator (Capintec Inc.), and expressed as % injected dose per gram (% ID/g), assuming 1 g/mL. CT was performed in GNEXT depth of interaction (DOI) dual-layer detector system. Scintica VivoQuant software was used to visualize radiotracer uptake and define the 3D volumes of interest. 3D maximum intensity projection (MIP) PET/CT images were created using IRW software.
A range of doses (0.65, 0.75, and 0.90 mg/kg) of GLPG1205 were used to investigate whether the blocking was dose-dependent. […] GLPG1205 was injected intra-venously 10 min prior to radiotracer injection (n=4).

GPR84 [3] = biological target: GPR84 (Homo sapiens, UniProt Q9NQS5); assay: In vitro autoradiography of human colon sections, active UC vs healthy; assay type: binding; parameters: from tissue; host or cells: human colon sections, active ulcerative colitis and matched healthy samples; details: for tracer binding in active UC colon tissue vs matched healthy samples: 5 μm sections; for tracer signal in UC colon tissue after pre-blocking with GLPG1205: 1000× GLPG1205 by mass
GPR84 (Homo sapiens, UniProt Q9NQS5), sequence (Q9NQS5 whole entry): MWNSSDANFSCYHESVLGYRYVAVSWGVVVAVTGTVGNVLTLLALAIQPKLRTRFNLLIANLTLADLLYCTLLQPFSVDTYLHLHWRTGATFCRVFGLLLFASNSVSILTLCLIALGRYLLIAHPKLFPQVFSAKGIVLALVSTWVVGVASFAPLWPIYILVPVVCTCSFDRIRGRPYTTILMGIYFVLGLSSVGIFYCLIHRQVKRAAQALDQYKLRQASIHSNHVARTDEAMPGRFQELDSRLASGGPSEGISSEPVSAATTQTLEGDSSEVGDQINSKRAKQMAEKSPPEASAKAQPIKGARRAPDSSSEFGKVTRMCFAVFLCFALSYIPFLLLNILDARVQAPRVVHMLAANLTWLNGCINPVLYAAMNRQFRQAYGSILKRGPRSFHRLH
Description: To investigate alterations in GPR84 mRNA expression under pro-inflammatory conditions, quantitative polymerase-chain reaction was performed using mouse brain and human monocyte-derived macrophage cells (hMDMs) treated with lipopolysaccharides (LPS) 24 hr prior to RNA extraction. [^11C]GLPG38 and [^18F]MGX-110S were made via [^11C]methylation of the desmethyl precursor and by copper mediated [^18F]fluorination of Bpin precursor respectively. Binding specificities of both tracers were assessed using human GPR84-stably-expressing human embryonic kidney cells (HEK-293) versus control HEK-293 cells. [^11C]GLPG38 binding was also assessed in hMDMs+/−treatment with LPS. Dynamic PET/CT imaging of healthy mice was commenced just prior to injection of [^11C]GLPG38 (100-150 μCi) or [^18F]MGX-110S (60-120 μCi) to determine biodistribution and kinetics. In vitro autoradiography (ARG) of human colon sections (5 μm) was conducted to test the ability of each tracer to detect innate immune activation in active UC.

GPR84 [4] = biological target: T1, GPR84; assay: Ex vivo gamma counting of CNS tissues in EAE vs naive mice
Description: After the PET/CT scan the mice were perfused under 3% isoflurane and organs of interest were dissected out, weighed, and placed on a Hidex gamma counter to quantify the percent of injected dose per gram of tissue. After gamma counting, CNS tissues were frozen and sectioned on a cryotome at 40 μm and placed on a phosphor storage screen overnight. The images were read using a Typhoon imager 18 h after the screen was exposed to the tissues. Additional mice were also injected off of the PET/CT scanner and perfused at 60-min post-injection to increase the N for the ex vivo gamma counting and autoradiography data.
Radiosynthesis of ^18F-MGX-110S was achieved by copper-mediated fluorination of a Bpin precursor in a mixture of dimethylacetamide at 130° C. for 20 min. C57BL/6 mice were induced with EAE using myelin oligodendrite glycoprotein (MOG35-55) emulsified in complete Freund's adjuvant and weighed/scored daily for disease severity. Expression of Gpr84 and Tspo was assessed in EAE (n=10-16 mice of low and high disease severities) versus naïve mice (n=5) using quantitative polymerase chain reaction (qPCR) of CNS tissues. In vivo kinetics, spatial distribution, and BBB permeability of ^18F-MGX-110S was assessed via 60-min dynamic PET/CT imaging of naïve C57BL/6 (n=3) and high scoring EAE mice (n=3). […]

signal-to-background ratio (EAE-to-naive) in lumbar spinal cord relative to 18F-GE180 (GPR84 [4]; 60 min post injection) | tracer binding in cervical/thoracic and lumbar spinal cord, EAE vs naive (GPR84 [4]; both p<0.01) | Structure (SMILES) | peak whole-brain uptake at 4 minutes post injection [1] | whole-brain level after washout over 60 min [1] | brain PET signal in LPS-treated vs saline-treated mice at 40-60 min post injection (GPR84 [2]) | tracer binding in active UC colon tissue vs matched healthy samples (GPR84 [3]) | tracer signal in UC colon tissue after pre-blocking with GLPG1205 (GPR84 [3])
– | – | Cc1cc2c(cc1O[11CH3])CCn1c-2c(C)c(OC[C@@H]2COCCO2)cc1=O [[^11C]GLPG38] | 3.3 SUV | 1.47 SUV | significantly elevated | marked increase of binding | markedly attenuated
2.5 fold | significantly elevated tracer binding | O=c1nc(OC[C@@H]2COCCO2)cc2n1CCc1cc([18F])ccc1-2 [^18F-MGX-110S] | – | – | – | marked increase of binding | markedly attenuated
